Experiment [1] concerns the target Voltage-dependent T-type calcium channel subunit alpha-1H (Homo sapiens, UniProt O95180). The experiment is classed as functional.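 Further: channel activity triggered by adding a high calcium stimulation buffer.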
A short description of experiment [2]: NIH3T3 cell viability loss – ATP luminescence, mouse fibroblasts, counter-screen, dose response (AID 2010).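 Further: cells exposed to compound for about 90 hours before reading.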 It counts as functional, cell-based.
For another experiment, the system named is Streptococcus. As to the kind of experiment: GAS UMAA2166 growth inhibition – luminescence, BacTiterGlo, counter-screen for streptokinase expression inhibitor project, dose response (AID 1915).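 Further: potency for reduction of bacterial viability or growth.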 The experiment is classed as functional, organism-based.
For a further experiment, the system named is HEK293. The experiment is described as follows: EBV LMP1 TES2 canonical NF-kB signalling blockers – cell-based, HEK293, luciferase, cherry-pick, dose response (AID 588343). It counts as functional. Particulars: Homo sapiens.
Experiment [3] is described as follows: Trypanosoma cruzi growth suppression in host cells – NIH3T3 host cells, beta-gal luminescence, confirmation (AID 2044).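 Further: intracellular parasites grown in NIH/3T3 mouse fibroblasts as host cells; luminescent beta-galactosidase reporter signal from transgenic T. cruzi replicating inside host cells; inhibitors lower the luminescence signal.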 The experiment is classed as functional, cell-based.
The target of the next experiment is T1, Streptokinase A (Streptococcus pyogenes serotype M1, UniProt P10520).
T1 sequence (P10520 whole entry): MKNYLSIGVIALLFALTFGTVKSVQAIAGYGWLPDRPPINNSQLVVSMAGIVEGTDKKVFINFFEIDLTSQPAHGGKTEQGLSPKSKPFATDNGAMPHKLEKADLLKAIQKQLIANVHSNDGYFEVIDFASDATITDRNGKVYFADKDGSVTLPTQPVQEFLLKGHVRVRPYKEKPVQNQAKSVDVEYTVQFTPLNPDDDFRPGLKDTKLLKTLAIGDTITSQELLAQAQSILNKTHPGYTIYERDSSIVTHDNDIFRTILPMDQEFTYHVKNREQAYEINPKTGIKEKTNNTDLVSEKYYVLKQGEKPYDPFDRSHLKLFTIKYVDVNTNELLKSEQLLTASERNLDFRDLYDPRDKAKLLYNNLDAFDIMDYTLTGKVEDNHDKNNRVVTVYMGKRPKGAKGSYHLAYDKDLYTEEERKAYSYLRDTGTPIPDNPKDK
As to the kind of experiment: viability-normalized secreted streptokinase activity reduction – plasminogen activation absorbance, OD405, dose response (AID 1914).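 Further: secreted streptokinase activity via plasminogen activation per viability signal from cell pellet.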 It counts as functional, Streptococcus pyogenes M1 GAS.

Experiment [4] is described as follows: Luminescence Cell-Based Dose Retest to Confirm Inhibitors of Cancer Stem Cells. [Related pubchem assays (depositor defined):AID2717, AID2721]. Particulars: Homo sapiens. The experiment is classed as functional.
Experiment [5] has as its system Streptococcus sp. 'group A'. The experiment is described as follows: Streptococcus pyogenes SK(-)GAS viability under kanamycin – luminescence, BacTiterGlo, confirmation, counter-screen for streptokinase expression inhibitor project, dose response (AID 1900). It counts as functional, organism-based.
The nature of experiment [6]: fluconazole-exposed Candida albicans growth modulators – fluorescence, retest, confirmation (AID 2467). It counts as functional, cell-based.
Experiment [7] can be described thus: NIH-3T3 fibroblast cytotoxicity, dose response, cytotoxicity control, cell-based, fluorescence, Alamar Blue, secondary assay (AID 2327).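 Further: NIH-3T3 mouse fibroblasts cultured with fluconazole at 8 µg/mL.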 It counts as functional.
A further experiment has as its target Prothrombin (Homo sapiens, UniProt P00734). As to the kind of experiment: Thrombin 1536 HTS Dose Response Confirmation. [Related pubchem assays: 1046 (Thrombin 1536 HTS; hits were confirmed in this assay)]. It counts as functional.
The next experiment deals with Nonstructural protein 1 (Influenza A virus, UniProt Q194T2). The experiment is classed as functional, Influenza A virus (A/California/07/2009(H1N1)).
The target in experiment [8] is T2, Replicative DNA helicase DnaB (Mycobacterium tuberculosis, UniProt P9WMR3).
T2 sequence (P9WMR3 whole entry): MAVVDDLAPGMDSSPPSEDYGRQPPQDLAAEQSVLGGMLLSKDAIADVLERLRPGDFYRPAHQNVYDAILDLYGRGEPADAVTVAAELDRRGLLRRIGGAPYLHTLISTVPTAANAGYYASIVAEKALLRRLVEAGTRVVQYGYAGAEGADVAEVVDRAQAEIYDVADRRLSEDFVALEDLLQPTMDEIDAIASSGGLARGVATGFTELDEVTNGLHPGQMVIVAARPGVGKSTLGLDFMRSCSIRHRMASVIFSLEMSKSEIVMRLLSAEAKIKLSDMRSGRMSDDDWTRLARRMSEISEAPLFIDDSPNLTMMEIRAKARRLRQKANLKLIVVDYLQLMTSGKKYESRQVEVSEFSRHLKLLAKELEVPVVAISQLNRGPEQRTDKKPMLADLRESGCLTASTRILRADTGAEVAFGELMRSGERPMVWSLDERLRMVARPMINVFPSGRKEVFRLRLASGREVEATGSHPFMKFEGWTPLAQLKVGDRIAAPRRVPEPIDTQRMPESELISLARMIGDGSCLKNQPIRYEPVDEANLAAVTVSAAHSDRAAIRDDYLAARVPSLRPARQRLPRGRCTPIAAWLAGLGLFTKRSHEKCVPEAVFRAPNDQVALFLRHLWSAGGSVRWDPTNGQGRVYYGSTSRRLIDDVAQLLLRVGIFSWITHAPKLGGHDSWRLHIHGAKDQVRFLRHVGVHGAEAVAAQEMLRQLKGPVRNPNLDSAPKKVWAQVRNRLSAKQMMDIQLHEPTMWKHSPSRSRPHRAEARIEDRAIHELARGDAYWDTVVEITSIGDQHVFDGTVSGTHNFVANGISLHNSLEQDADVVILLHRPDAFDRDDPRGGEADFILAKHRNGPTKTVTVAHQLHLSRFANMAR
The experiment is described as follows: DnaB intein splicing inhibitors, dose response, biochemical, cell-free fluorescence (AID 449749). It counts as functional.

A further experiment deals with T3, Protein RecA (Mycobacterium tuberculosis, UniProt P9WHJ3).
T3 sequence (P9WHJ3 whole entry): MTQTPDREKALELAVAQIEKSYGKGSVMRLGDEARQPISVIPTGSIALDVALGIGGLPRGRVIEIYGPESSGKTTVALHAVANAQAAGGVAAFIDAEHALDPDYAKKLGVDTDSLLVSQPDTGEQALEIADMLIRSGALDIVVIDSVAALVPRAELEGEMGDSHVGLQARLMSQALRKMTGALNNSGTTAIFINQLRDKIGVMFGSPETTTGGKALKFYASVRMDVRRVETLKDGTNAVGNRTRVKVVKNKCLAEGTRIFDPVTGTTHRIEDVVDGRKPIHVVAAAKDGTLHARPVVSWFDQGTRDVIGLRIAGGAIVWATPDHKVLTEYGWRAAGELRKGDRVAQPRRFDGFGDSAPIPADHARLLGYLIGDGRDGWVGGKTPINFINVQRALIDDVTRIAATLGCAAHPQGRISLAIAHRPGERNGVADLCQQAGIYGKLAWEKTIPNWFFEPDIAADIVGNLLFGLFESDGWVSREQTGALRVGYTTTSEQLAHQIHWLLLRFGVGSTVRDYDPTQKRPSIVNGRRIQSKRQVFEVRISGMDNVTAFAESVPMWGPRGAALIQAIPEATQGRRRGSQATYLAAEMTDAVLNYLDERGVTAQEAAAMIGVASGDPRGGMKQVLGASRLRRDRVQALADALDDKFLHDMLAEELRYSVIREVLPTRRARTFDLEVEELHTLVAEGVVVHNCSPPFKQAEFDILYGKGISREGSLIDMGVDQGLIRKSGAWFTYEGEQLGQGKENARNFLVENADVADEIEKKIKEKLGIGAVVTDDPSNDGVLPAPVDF
The experiment is described as follows: Fluorescence Cell-Free Homogeneous Dose Retest to Identify Inhibitors of RecA-Intein Splicing Activity. [Related pubchem assays (depositor defined):AID2097, AID2223, AID489010, AID492950]. The experiment is classed as functional.

Experiment [9] addresses T4, DNA repair and recombination protein RAD54-like (Homo sapiens, UniProt Q92698).
T4 sequence (Q92698 whole entry): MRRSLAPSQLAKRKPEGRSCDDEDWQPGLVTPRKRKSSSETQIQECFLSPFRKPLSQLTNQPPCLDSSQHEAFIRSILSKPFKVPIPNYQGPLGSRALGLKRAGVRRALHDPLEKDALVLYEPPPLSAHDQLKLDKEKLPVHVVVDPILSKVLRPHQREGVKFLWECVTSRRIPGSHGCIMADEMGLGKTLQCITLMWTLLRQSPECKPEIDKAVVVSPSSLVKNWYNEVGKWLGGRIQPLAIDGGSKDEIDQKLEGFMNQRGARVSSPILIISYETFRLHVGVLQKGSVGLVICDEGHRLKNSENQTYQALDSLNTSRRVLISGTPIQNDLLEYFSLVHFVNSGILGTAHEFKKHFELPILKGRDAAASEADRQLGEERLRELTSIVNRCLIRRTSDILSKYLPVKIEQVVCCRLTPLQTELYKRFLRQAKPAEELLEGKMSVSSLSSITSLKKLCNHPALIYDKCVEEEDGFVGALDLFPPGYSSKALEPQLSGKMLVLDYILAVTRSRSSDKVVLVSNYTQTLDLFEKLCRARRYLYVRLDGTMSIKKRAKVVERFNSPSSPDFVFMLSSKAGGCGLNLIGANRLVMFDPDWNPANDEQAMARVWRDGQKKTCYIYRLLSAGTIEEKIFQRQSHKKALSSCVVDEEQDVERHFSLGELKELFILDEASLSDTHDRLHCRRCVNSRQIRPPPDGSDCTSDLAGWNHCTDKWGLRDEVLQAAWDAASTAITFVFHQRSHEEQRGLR
The experiment is described as follows: RAD54 Holliday junction migration blockers – biochemical, fluorescence, cherry-picked samples, dose series, confirmation (AID 651657). It counts as functional.

For experiment [10], the target named is T5, DNA repair protein RAD52 homolog (Homo sapiens, UniProt P43351).
T5 sequence (P43351 whole entry): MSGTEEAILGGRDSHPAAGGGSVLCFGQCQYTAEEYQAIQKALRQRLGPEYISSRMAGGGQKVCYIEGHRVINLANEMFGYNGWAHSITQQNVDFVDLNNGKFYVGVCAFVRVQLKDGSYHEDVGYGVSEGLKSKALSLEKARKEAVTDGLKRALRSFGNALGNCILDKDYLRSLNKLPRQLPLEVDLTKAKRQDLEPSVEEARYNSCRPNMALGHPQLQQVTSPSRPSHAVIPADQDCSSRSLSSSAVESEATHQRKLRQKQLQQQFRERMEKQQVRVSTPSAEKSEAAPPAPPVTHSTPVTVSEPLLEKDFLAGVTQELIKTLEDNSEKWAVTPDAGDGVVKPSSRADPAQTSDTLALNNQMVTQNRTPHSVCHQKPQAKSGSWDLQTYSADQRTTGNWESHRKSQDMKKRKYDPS
It counts as functional, biochemical.

The nature of experiment [11]: viability of PTEN-deleted HCT116 cells – cell-based, HCT116 PTEN knockout, dose response (AID 1047).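 Further: HCT116 colon tumor cells with PTEN knocked out; cells exposed to compound for 60 hours before readout; potency for loss of cell viability measured by luminescence.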 The experiment is classed as functional.
The nature of experiment [12]: viability of HCT116 lacking mutant beta-catenin – cell-based, human colon tumor, dose response (AID 1045).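 Further: HCT116 colon tumor cells with beta catenin knocked out; cells exposed to compound for 60 hours.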 The experiment is classed as functional.

Active and inactive are the calls of the source. Some results are limits rather than exact numbers.

Sequence of Voltage-dependent T-type calcium channel subunit alpha-1H (O95180 whole entry): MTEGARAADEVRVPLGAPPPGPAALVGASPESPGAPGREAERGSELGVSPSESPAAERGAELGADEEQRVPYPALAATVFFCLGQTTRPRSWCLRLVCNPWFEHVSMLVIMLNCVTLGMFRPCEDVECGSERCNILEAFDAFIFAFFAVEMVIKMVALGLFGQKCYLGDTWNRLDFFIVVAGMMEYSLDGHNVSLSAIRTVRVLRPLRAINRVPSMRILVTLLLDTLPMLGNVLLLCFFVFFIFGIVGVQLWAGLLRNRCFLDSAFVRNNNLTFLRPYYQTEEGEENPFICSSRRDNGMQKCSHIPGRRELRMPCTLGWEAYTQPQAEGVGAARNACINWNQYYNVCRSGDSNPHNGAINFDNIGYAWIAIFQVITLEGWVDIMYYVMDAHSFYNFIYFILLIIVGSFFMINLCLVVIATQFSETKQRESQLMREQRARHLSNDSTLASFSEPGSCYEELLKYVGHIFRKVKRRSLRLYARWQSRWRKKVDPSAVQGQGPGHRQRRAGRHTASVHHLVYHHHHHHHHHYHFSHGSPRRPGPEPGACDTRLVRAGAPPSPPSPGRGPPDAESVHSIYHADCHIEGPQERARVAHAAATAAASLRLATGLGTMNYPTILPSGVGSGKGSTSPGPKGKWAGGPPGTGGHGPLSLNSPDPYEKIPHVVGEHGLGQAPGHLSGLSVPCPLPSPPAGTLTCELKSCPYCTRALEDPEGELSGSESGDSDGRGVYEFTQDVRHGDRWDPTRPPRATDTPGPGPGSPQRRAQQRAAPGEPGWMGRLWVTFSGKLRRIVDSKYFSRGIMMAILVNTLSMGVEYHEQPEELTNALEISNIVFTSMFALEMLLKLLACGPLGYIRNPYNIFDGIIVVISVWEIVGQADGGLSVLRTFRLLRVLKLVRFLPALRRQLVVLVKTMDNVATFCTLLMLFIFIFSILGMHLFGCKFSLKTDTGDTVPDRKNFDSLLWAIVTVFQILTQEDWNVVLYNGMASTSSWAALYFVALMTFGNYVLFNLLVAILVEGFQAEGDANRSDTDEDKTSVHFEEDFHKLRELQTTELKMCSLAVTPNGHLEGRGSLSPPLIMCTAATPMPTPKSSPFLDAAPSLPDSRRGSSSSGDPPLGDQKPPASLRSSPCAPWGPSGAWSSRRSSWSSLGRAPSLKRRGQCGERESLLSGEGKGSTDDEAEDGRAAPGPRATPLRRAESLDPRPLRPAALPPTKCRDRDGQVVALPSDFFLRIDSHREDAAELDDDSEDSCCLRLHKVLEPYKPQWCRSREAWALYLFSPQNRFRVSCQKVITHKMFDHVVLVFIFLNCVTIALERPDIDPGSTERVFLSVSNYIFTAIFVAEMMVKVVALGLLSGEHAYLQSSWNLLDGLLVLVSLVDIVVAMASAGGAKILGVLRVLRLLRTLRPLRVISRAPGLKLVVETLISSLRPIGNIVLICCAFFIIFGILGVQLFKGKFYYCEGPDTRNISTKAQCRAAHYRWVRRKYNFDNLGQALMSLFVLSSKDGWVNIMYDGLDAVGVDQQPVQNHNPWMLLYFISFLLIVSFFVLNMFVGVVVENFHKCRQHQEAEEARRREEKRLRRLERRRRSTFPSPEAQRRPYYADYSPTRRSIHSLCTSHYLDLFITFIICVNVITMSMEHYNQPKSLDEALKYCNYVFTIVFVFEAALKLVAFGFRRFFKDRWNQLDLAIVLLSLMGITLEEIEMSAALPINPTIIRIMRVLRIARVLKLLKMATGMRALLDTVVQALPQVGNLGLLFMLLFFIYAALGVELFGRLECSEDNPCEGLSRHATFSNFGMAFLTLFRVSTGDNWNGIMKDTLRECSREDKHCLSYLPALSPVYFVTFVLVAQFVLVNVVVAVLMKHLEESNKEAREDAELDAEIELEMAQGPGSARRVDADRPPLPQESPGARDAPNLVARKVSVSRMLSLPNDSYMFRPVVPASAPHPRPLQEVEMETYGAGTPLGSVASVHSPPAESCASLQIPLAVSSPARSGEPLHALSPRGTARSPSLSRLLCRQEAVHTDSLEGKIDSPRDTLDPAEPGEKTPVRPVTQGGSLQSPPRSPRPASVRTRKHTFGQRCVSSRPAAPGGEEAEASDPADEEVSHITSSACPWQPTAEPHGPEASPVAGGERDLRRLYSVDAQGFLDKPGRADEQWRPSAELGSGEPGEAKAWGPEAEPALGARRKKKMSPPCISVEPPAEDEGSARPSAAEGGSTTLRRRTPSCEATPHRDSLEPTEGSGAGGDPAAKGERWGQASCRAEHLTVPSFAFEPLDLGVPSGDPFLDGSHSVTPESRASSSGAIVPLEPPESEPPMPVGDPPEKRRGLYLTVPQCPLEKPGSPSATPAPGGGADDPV
Sequence of Nonstructural protein 1 (Q194T2 whole entry): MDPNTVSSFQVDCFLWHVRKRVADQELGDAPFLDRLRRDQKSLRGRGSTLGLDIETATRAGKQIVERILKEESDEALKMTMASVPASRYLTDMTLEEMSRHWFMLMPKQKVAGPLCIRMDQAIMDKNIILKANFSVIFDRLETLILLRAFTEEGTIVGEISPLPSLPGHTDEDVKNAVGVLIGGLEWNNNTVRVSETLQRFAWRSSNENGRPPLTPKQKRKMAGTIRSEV

For `O=C(Nc1nc2ccccc2s1)C1CCCN1S(=O)(=O)c1ccc(Cl)cc1` (stereo not given), the EC50 in experiment [1] is 5.86 µM (active). Turning to `S=C(NCC1CCCCC1)Nc1ccc(Oc2ccccc2)cc1`, the EC50 in [2] was > 60 µM (not active); in the experiment on Streptococcus, 24.3 µM (active); in [3], 2.05 µM (active); on Streptokinase A, 4.05 µM (active); in experiment [5] it was 10.9 µM (active). The results for the AC50 (in the experiment on HEK293; in experiment [4]) were 170 µM (active) and 4.58 µM (active), respectively.

As to `COc1ccc(C(C(O)C(=O)c2c[nH]c3ccccc23)N2CCN(c3ccccc3)CC2)cc1` (stereo not given), in [1], the EC50 was 8.16 µM (active). `C=CCn1c(O)c(N=NC(S)=Nc2ccccc2C)c2cc(S(=O)(=O)N3CCOCC3)ccc21`: in the experiment on HEK293, the AC50 was 2.93 µM (active). The EC50 in experiment [6] is 2.06 µM (active); in [7] it was 20.4 µM (inconclusive). Regarding `COc1ccc(CNc2nc(-c3cccnc3)nn2C(C)=O)cc1`, the IC50 on Prothrombin was 0.0252 µM (active).

In the case of `O=[N+]([O-])c1nn(-c2ccc3c(c2)OCCO3)[n+]([O-])c1NC1CCCCCC1`, the EC50 in experiment [2] was > 30 µM (not active); in experiment [3] it was 0.681 µM (active). For the same molecule, the IC50 on Nonstructural protein 1 is 44.6 µM (active).

As to `O=C1C=C(O)c2c(O)cccc2C1=O`, the half-inhibitory concentration (IC50) on Prothrombin was > 50 µM (not active). `Clc1ccc(-c2cnnc(-c3ccccn3)n2)cc1`: the IC50 at Nonstructural protein 1 was 14.2 µM (active). Regarding `COc1cccc(C(=O)Nc2n[nH]c(SCc3ccc(Cl)cc3)n2)c1`, in experiment [8], the AC50 was 2.78 µM (active). In addition, on Protein RecA, the EC50 was 1.29 µM (active). Further, the IC50 at Prothrombin was 2.94 µM (active). As to `COc1ccc(/C=C2\SC(=O)N(CCCC(=O)Nc3ccc(C(=O)O)cc3)C2=O)cc1`, the AC50 in the experiment with HEK293 was 2.37 µM (active).

For `CCCc1c(C(=O)N/N=C(\C)c2ccccn2)nnn1-c1nonc1N`, the AC50 in the experiment on HEK293 was 9.69 µM (active). As for `CN(C)CCCNc1nc2cc(-c3ccc4c(ccn4C)c3)sc2c(=O)n1C`, the AC50 was 28.7 µM (active) in experiment [9] and 4.02 µM (active) in experiment [10].

On to `O=C(CCC1COc2ccccc2O1)Nc1ccc(Cl)cn1` (stereo not given), for which the EC50 in [1] is 2.94 µM (active).

In the case of `Cc1ccc(-c2nnn(CC(=O)N(c3ccccc3F)C(CC(C)C)C(=O)NCC3CCCO3)n2)cc1` (stereo not given), in experiment [1], the EC50 is 5.3 µM (active). Regarding `CC(=O)c1ccc(O)c(CSC2=NCCS2)c1`, the IC50 against Prothrombin is > 50 µM (not active). The same measure, in the same setting: then `O=C(Nc1nc(-c2cccs2)cs1)c1ccco1`, with > 50 µM (not active). For `Cc1nc(SCC(=O)c2cc3ccccc3oc2=O)c(C#N)c(-c2ccccc2)c1C(=O)Nc1ccccc1`, the EC50 in [11] was 8.4 µM (active); in [12] it was 7.01 µM (active). In the case of `CCCC(=O)n1nc(-c2ccc(Cl)cc2)nc1SC`, the IC50 at Prothrombin was 3.57 µM (active).

On to `O=C(Nc1cc(C(F)(F)F)cc(C(F)(F)F)c1)c1ccc(Cn2cc(C(F)(F)F)ccc2=O)cc1`, for which, in experiment [1], the EC50 was 5.74 µM (active). On to `N#Cc1ccc(-c2ccc(F)cc2)nc1Sc1ccc(F)cc1`, for which the half-maximal effective concentration (EC50) in experiment [11] was 20.6 µM (active); in experiment [12], 28.7 µM (active).

The values above are taken from ChEMBL document CHEMBL1201862, “PubChem BioAssay data set” (2004).
